Measurements taken from BigSolDB 2.1.

O=C(O)c1cccc(C(=O)O)c1
solubility (mole fraction)
Details	283.15 K	288.15 K	293.15 K	298.15 K	303.15 K	308.15 K	313.15 K	318.15 K	323.15 K
in ethanol	0.00328	0.00369	0.00406	0.00451	0.005	0.00559	0.00616	0.00682	0.00752
in methanol	0.00269	0.00304	0.00342	0.00376	0.00422	0.00473	0.00527	0.0059	0.00654
in n-propanol	0.00287	0.0032	0.00362	0.00415	0.00472	0.00533	0.00603	0.00689	0.00774
